Experimental data taken from patent US20250114345A1, “COMPOUNDS AND COMPOSITIONS AS CBP/P300 DEGRADERS AND USES THEREOF” (Oncopia Therapeutics, Inc. d/b/a/ SK Life Science Labs, priority 2023, published 2025).

Target: T1, p300 (Homo sapiens, UniProt Q09472)
T1 construct: host or cells: A549 P300 HiBit cells
Assay: P300 degradation, HiBit technology in A549 P300 HiBit cells (2 h)
Format: cell-based
Settings: 2 hrs post treatment; for Dmax: A549, A549 P300 HiBit cells; for DC50: A549 P300 HiBit cells
Description: p300 and CBP degradation potency and Dmax were determined using in cell western (ICW) assay technology in H1299 cells or HiBit technology in A549 HiBit cells.
A549 P300 HiBit and A549 CBP HiBit cells were plated in separate 384-well, TC treated, white-opaque, flat-bottomed microplate. Cells were plated at a cell density of 0.2×10^4 cells per well in assay media comprised of F-12K, 10% heat inactivated FBS, and 1% penicillin/streptomycin. Assay microplates containing HiBit cells were placed in a 37° C., 5% CO2, tissue culture incubator and left to equilibrate overnight. The next day cells were treated with serial dilutions of test compound made up of 10 mM stock solutions in DMSO. 384-Well plates containing treated cells were then placed back into a 37° C., 5% CO2, tissue culture incubator. Assay microplates containing A549 P300 HiBit cells were incubated for 2 hrs post treatment before P300 destruction was assessed, while microplates containing A549 CBP HiBit cells were incubated for 24 hrs post treatment before CBP destruction was determined. On the day of each assay time point, microplates were removed from the tissue culture incubator and prepared HiBit Lytic detection buffer (Promega, cat #N3O40) was added to each plate. Plates were covered with aluminum foil and incubated for ten minutes at room temperature on an orbital shaker. After incubation, luminescent signal of each plate was measured using the Envision instrument (Perkin Elmer).

T1 sequence (Q09472 whole entry): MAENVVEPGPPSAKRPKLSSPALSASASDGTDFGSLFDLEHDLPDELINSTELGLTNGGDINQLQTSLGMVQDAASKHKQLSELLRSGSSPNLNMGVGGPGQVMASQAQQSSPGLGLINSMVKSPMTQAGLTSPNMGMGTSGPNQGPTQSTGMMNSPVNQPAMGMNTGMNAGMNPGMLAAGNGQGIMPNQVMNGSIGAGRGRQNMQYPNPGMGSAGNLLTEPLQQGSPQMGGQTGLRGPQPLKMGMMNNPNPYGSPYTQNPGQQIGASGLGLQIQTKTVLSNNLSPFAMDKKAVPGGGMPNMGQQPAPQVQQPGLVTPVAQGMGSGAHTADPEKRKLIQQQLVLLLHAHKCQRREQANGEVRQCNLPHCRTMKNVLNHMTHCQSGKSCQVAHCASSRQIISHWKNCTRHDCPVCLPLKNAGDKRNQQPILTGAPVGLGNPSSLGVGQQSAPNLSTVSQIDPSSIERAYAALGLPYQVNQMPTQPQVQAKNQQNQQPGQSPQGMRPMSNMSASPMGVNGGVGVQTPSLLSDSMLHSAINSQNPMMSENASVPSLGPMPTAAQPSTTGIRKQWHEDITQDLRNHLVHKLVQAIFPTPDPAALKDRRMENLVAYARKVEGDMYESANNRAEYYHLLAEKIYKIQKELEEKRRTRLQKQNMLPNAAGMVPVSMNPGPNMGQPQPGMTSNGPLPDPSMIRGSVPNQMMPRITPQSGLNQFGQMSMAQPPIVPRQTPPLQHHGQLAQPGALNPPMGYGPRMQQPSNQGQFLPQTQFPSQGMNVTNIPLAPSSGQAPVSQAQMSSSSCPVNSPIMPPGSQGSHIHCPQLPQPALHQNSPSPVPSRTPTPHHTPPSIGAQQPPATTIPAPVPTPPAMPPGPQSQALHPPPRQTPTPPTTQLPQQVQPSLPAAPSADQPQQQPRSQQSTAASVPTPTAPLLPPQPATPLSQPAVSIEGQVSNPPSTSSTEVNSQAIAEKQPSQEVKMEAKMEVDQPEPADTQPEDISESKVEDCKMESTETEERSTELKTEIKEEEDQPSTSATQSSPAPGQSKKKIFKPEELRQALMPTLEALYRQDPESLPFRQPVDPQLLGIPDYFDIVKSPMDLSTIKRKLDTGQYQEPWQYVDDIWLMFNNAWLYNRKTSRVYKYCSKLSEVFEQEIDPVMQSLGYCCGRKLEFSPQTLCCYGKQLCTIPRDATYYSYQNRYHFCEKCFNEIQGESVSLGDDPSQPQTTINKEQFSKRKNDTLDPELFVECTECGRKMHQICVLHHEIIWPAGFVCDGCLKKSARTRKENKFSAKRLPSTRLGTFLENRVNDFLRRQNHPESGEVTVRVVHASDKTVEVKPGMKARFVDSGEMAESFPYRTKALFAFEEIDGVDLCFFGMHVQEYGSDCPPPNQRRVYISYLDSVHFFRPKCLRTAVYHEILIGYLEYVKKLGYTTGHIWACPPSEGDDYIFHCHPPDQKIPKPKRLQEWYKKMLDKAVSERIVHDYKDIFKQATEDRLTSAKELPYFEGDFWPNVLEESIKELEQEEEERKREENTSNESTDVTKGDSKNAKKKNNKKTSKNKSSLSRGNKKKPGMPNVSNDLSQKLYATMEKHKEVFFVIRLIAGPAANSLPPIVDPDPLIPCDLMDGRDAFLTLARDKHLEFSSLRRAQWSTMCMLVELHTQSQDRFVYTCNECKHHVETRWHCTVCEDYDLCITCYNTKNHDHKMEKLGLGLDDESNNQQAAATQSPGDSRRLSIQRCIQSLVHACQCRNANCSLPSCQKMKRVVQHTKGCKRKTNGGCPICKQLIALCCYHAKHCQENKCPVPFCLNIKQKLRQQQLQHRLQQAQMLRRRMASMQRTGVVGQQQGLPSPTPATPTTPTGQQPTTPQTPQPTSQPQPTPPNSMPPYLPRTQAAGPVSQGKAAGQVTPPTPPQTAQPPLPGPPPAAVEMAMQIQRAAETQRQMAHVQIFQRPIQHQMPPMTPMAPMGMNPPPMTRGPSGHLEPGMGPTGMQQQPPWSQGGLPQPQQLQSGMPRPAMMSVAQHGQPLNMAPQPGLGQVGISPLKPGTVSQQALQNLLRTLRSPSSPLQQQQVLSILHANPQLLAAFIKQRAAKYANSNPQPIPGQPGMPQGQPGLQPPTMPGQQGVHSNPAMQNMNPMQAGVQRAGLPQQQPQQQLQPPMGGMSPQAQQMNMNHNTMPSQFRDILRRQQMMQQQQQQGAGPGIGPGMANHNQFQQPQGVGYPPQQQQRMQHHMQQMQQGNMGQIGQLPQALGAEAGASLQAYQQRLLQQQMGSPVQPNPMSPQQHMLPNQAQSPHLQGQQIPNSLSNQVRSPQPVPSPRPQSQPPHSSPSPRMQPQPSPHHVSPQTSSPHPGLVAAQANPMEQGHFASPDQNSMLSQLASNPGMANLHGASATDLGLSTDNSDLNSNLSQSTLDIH

SMILES | Dmax [%] | DC50 [nM]
CN1C2CCC1CN(c1nc(-c3cccc4cc(-c5ccc(C(=O)NCC#Cc6ccc7occ(C8CCC(=O)NC8=O)c7c6)nc5)ncc34)cc3c1n(C)c(=O)n3C)C2 (stereo not drawn) [Example A67, 5-(8-(1,3-dimethyl-4-(8-methyl-3,8-diazabicyclo[3.2.1]octan-3-yl)-2-oxo-2,3-dihydro-1H-imidazo [4,5-c]pyridin-6-yl)isoquinolin-3-yl)-N-(3-(3-(2,6-dioxopiperidin-3-yl)benzofuran-5-yl)prop-2-yn-1-yl)picolinamide] | 60 to 79 | 1 to 9.9
CC(C)c1cc(-c2ncc(N(C)c3cc(C(C)C)c4c(c3)n(C)c(=O)n4C)cn2)cnc1C(=O)NCC#Cc1ccc2occ(C3CCC(=O)NC3=O)c2c1 (stereo not drawn) [Example A71, N-(3-(3-(2,6-dioxopiperidin-3-yl)benzofuran-5-yl)prop-2-yn-1-yl)-3-isopropyl-5-(5-((7-isopropyl-1,3-dimethyl-2-oxo-2,3-dihydro-1H-benzo[d]imidazol-5-yl)(methyl)amino)pyrimidin-2-yl)picolinamide] | > 80 | 1 to 9.9
Cn1c(=O)n(C)c2cc(-c3cccc4cc(-c5cnc(C(=O)NCC#Cc6ccc7occ(C8CCC(=O)NC8=O)c7c6)c(Cl)c5)ncc34)ccc21 (stereo not drawn) [Example A73, 3-chloro-5-(8-(1,3-dimethyl-2-oxo-2,3-dihydro-1H-benzo[d]imidazol-5-yl)isoquinolin-3-yl)-N-(3-(3-(2,6-dioxopiperidin-3-yl)benzofuran-5-yl)prop-2-yn-1-yl)picolinamide] | > 80 | 1 to 9.9
CC(C)c1cc(C2CC(C)(C)Oc3cc(-c4ccc(C(=O)NCC#Cc5ccc6occ(C7CCC(=O)NC7=O)c6c5)nc4)c(F)cc32)cc2c1n(C)c(=O)n2C (stereo not drawn) [Example A85, N-(3-(3-(2,6-dioxo-piperidin-3-yl)benzofuran-5-yl)prop-2-yn-1-yl)-5-(6-fluoro-4-(7-isopropyl-1,3-dimethyl-2-oxo-2,3-dihydro-1H-benzo [d]imidazol-5-yl)-2,2-dimethylchroman-7-yl)picolinamide] | > 80 | 1 to 9.9
Cc1cc(-c2ncc3c(n2)OCCN3c2cc3c(c(N4CCOCC4)n2)n(C)c(=O)n3C)cnc1C(=O)NCC#Cc1ccc2occ(C3CCC(=O)NC3=O)c2c1 (stereo not drawn) [Example A91, 5-(5-(1,3-dimethyl-4-morpholino-2-oxo-2,3-dihydro-1H-imidazo[4,5-c]pyridin-6-yl)-6,7-dihydro-5H-pyrimido[4,5-b][1,4]oxazin-2-yl)-N-(3-(3-(2,6-dioxopiperidin-3-yl)benzofuran-5-yl)prop-2-yn-1-yl)-3-methylpicolinamide] | < 20 | 10 to 99
Cc1cc(-c2cc3c(cc2C(F)F)N(c2ccc4c(c2)n(C)c(=O)n4C)CCC3)cnc1C(=O)NCC#Cc1ccc2occ(C3CCC(=O)NC3=O)c2c1 (stereo not drawn) [Example A94, 5-(7-(difluoromethyl)-1-(1,3-dimethyl-2-oxo-2,3-dihydro-1H-benzo[d]imidazol-5-yl)-1,2,3,4-tetrahydro-quinolin-6-yl)-N-(3-(3-(2,6-dioxopiperidin-3-yl)benzofuran-5-yl)prop-2-yn-1-yl)-3-methylpicolinamide] | > 80 | 1 to 9.9
Cc1cc(-c2ncc(N(C)c3cc(C(C)C)c4c(c3)n(C)c(=O)n4C)cc2C#N)cnc1C(=O)NCC#Cc1ccc2occ(C3CCC(=O)NC3=O)c2c1 (stereo not drawn) [Example A98, 3-cyano-N-(3-(3-(2,6-dioxopiperidin-3-yl)benzofuran-5-yl)prop-2-yn-1-yl)-5-((7-isopropyl-1,3-dimethyl-2-oxo-2,3-dihydro-1H-benzo[d]imidazol-5-yl)(methyl)amino)-5′-methyl-[2,3′-bipyridine]-6′-carboxamide] | > 80 | 1 to 9.9

Continued, values first:

Dmax [%] | DC50 [nM] | SMILES
> 80 | 1 to 9.9 | [2H]C([2H])([2H])N(c1cnc(-c2cnc(C(=O)NCC#Cc3ccc4occ(C5CCC(=O)NC5=O)c4c3)c(C)c2)nc1)c1cc(C(C)C)c2c(c1)n(C)c(=O)n2C (stereo not drawn) [Example A65, N-(3-(3-(2,6-dioxopiperidin-3-yl)benzofuran-5-yl)prop-2-yn-1-yl)-5-(5-((7-isopropyl-1,3-dimethyl-2-oxo-2,3-dihydro-1H-benzo [d]imidazol-5-yl)(methyl-d3)amino)pyrimidin-2-yl)-3-methylpicolinamide]
< 20 | > 1000 | Cc1cc(-c2ncc(N(C)c3cc4c(c(C(C)C)n3)n(C)c(=O)n4C)cn2)cnc1C(=O)NCC#Cc1ccc2occ(C3CCC(=O)NC3=O)c2c1 (stereo not drawn) [Example A74, N-(3-(3-(2,6-dioxopiperidin-3-yl)benzofuran-5-yl)prop-2-yn-1-yl)-5-(5-((4-isopropyl-1,3-dimethyl-2-oxo-2,3-dihydro-1H-imidazo[4,5-c]pyridin-6-yl)(methyl)amino)pyrimidin-2-yl)-3-methylpicolinamide]
< 20 | > 1000 | CC(C)c1nc(N2CCCc3nc(-c4ccc(C(=O)NCC#Cc5ccc6occ(C7CCC(=O)NC7=O)c6c5)nc4)ncc32)cc2c1n(C)c(=O)n2C (stereo not drawn) [Example A76, N-(3-(3-(2,6-dioxopiperidin-3-yl)benzofuran-5-yl)prop-2-yn-1-yl)-5-(5-(4-isopropyl-1,3-dimethyl-2-oxo-2,3-dihydro-1H-imidazo[4,5-c]pyridin-6-yl)-5,6,7,8-tetrahydropyrido[3,2-d]pyrimidin-2-yl)picolinamide]
60 to 79 | 1 to 9.9 | CCn1c(=O)n(C)c2c(C)cc(N3CCOc4nc(-c5ccc(C(=O)NCC#Cc6ccc7occ(C8CCC(=O)NC8=O)c7c6)nc5)ncc43)cc21 (stereo not drawn) [Example A77, N-(3-(3-(2,6-dioxopiperidin-3-yl)benzofuran-5-yl)prop-2-yn-1-yl)-5-(5-(3-ethyl-1,7-dimethyl-2-oxo-2,3-dihydro-1H-benzo[d]imidazol-5-yl)-6,7-dihydro-5H-pyrimido[4,5-b][1,4]oxazin-2-yl)picolinamide]
< 20 | > 1000 | Cn1c(=O)n(C)c2c(C3CCOCC3)nc(N3CCCc4nc(-c5ccc(C(=O)NCC#Cc6ccc7occ(C8CCC(=O)NC8=O)c7c6)nc5)ncc43)cc21 (stereo not drawn) [Example A78, 5-(5-(1,3-dimethyl-2-oxo-4-(tetrahydro-2H-pyran-4-yl)-2,3-dihydro-1H-imidazo[4,5-c]pyridin-6-yl)-5,6,7,8-tetrahydro-pyrido[3,2-d]pyrimidin-2-yl)-N-(3-(3-(2,6-dioxopiperidin-3-yl)benzofuran-5-yl)prop-2-yn-1-yl)picolinamide]
< 20 | > 1000 | Cc1cc(-c2ncc(N(C)c3cc(N4CCOCC4)c4oc(=O)n(C)c4c3)cn2)cnc1C(=O)NCC#Cc1ccc2occ(C3CCC(=O)NC3=O)c2c1 (stereo not drawn) [Example A80, N-(3-(3-(2,6-dioxo-piperidin-3-yl)benzofuran-5-yl)prop-2-yn-1-yl)-3-methyl-5-(5-(methyl (3-methyl-7-morpholino-2-oxo-2,3-dihydrobenzo [d]oxazol-5-yl)amino)pyrimidin-2-yl)picolinamide]
< 20 | > 1000 | CC(C)c1cc(C(F)(F)c2ccc(-c3ccc(C(=O)NCC#Cc4ccc5occ(C6CCC(=O)NC6=O)c5c4)nc3)nc2)cc2c1n(C)c(=O)n2C (stereo not drawn) [Example A81, 5-(difluoro(7-isopropyl-1,3-dimethyl-2-oxo-2,3-dihydro-1H-benzo[d]imidazol-5-yl)methyl)-N-(3-(3-(2,6-dioxopiperidin-3-yl)benzofuran-5-yl)prop-2-yn-1-yl)-[2,3′-bipyridine]-6′-carboxamide]
> 80 | 1 to 9.9 | [2H]C([2H])([2H])N(c1cnc(-c2cnc(C(=O)NCC#Cc3ccc4occ(C5CCC(=O)NC5=O)c4c3)c(C)c2)nc1)c1cc(C2CCOCC2)c2c(c1)n(C)c(=O)n2C (stereo not drawn) [Example A82, 5-(5-((1,3-dimethyl-2-oxo-7-(tetrahydro-2H-pyran-4-yl)-2,3-dihydro-1H-benzo [d]imidazol-5-yl) (methyl-d3)amino)pyrimidin-2-yl)-N-(3-(3-(2,6-dioxo-piperidin-3-yl)benzofuran-5-yl)prop-2-yn-1-yl)-3-methylpicolinamide]
< 20 | 1 to 9.9 | Cc1cc(-c2ncc(N(C)c3cc(C4CCOCC4)c4c(c3)n(C)c(=O)n4C)nn2)cnc1C(=O)NCC#Cc1ccc2occ(C3CCC(=O)NC3=O)c2c1 (stereo not drawn) [Example A90, 5-(6-((1,3-dimethyl-2-oxo-7-(tetrahydro-2H-pyran-4-yl)-2,3-dihydro-1H-benzo[d]imidazol-5-yl)(methyl)amino)-1,2,4-triazin-3-yl)-N-(3-(3-(2,6-dioxopiperidin-3-yl)benzofuran-5-yl)prop-2-yn-1-yl)-3-methylpicolinamide]
< 20 | > 1000 | Cn1c(=O)oc2ccc(-c3cccc4cc(-c5ccc(C(=O)NCC#Cc6ccc7occ(C8CCC(=O)NC8=O)c7c6)nc5)ncc34)cc21 (stereo not drawn) [Example A101, N-(3-(3-(2,6-dioxo-piperidin-3-yl)benzofuran-5-yl)prop-2-yn-1-yl)-5-(8-(3-methyl-2-oxo-2,3-dihydrobenzo[d]oxazol-5-yl)isoquinolin-3-yl)picolinamide]
60 to 79 | 1 to 9.9 | Cc1cc(-c2ncc(N(C)c3ccc4c(c3)n(C)c(=O)n4C)cn2)cnc1C(=O)NCC#Cc1ccc2occ(C3CCC(=O)NC3=O)c2c1 (stereo not drawn) [Example A103, 5-(5-((1,3-dimethyl-2-oxo-2,3-dihydro-1H-benzo[d]imidazol-5-yl)(methyl)amino)pyrimidin-2-yl)-N-(3-(3-(2,6-dioxopiperidin-3-yl)benzofuran-5-yl)prop-2-yn-1-yl)-3-methylpicolinamide]
